Measured values from patent US7566717B2, “Substituted heterocyclic compounds” (Gilead Sciences, Inc., priority 2003, dated 2009).

Test system: Rat heart mitochondria (palmitoyl CoA oxidation)
Assay: Mitochondrial assay: palmitoyl CoA oxidation
Format: biochemical
Conditions: at 100 μM of test compound, 1-C14 palmitoyl CoA oxidation, 15 min at 30° C.
Protocol: Rat heart mitochondria were isolated by the method of Nedergard and Cannon (Methods in Enzymol. 55, 3, 1979).
Palmitoyl CoA oxidation—The Palmityl CoA oxidation was carried out in a total volume of 100 micro liters containing the following agents: 110 mM KCl, 33 mM Tris buffer at pH 8, 2 mM KPi, 2 mM MgCl2, 0.1 mM EDTA, 14.7 microM defatted BSA, 0.5 mM malic acid, 13 mM carnitine, 1 mM ADP, 52 micrograms of mitochondrial protein, and 16 microM 1-C14 palmitoyl CoA (Sp. Activity 60 mCi/mmole; 20 microCi/ml, using 5 microliters per assay). The compounds of this invention were added in a DMSO solution at the following concentrations: 100 micro molar, 30 micro molar, and 3 micro molar. In each assay, a DMSO control was used. After 15 min at 30° C., the enzymatic reaction was centrifuged (20,000 g for 1 min), and 70 microliters of the supernatant was added to an activated reverse phase silicic acid column (approximately 0.5 ml of silicic acid). The column was eluted with 2 ml of water, and 0.5 ml of the eluent was used for scintillation counting to determine the amount of C^14 trapped as C^14 bicarbonate ion.

Cc1cccc(C)c1NC(=O)CN1CCN(CC(O)CC(=O)Nc2ccccc2F)CC1 (stereo not drawn) [4-(4-{[N-(2,6-dimethylphenyl)carbamoyl]methyl}piperazinyl)-3-hydroxy-N-(2-fluorophenyl)butanamide]
Inhibition: 36%

Cc1cccc(C)c1NC(=O)CN1CCN(CC(O)CNC(=O)c2ccccc2F)CC1 (stereo not drawn) [N-(2,6-dimethylphenyl)-2-(4-{3-[(2-fluorophenyl)carbonylamino]-2-hydroxypropyl}piperazinyl)acetamide]
Inhibition: 24%

Cc1cccc(C)c1NC(=O)CN1CCN(CC(O)CC2CCCCC2)CC1 (stereo not drawn) [N-(2,6-dimethylphenyl)-2-[4-(3-cyclohexyl-2-hydroxypropyl)piperazinyl]acetamide]
Inhibition: 8%
